Entries after “also recorded” stand apart in the source; their conditions may differ. Read-outs that look alike come from different tables or passages of the source.
What was measured:
[1] = Ocular toxicity after chronic topical dosing (slit-lamp, lissamine green staining); type: in vivo; conditions: chronically treated mice
Experimental: (§1) To assess corneal epithelial disruption, 5 μL of lissamine green (LG) dye (1%) was applied to the ocular surface of isofluorane-anesthetized mice. Photographs of the eye were taken using a Nikon Digital camera adapted to an Olympus Zoom Stereo Microscope (Olympus, Center Valley, Pa., USA). Each corneal quadrant was scored on a 3-point scale by one blinded, trained observer, with the extent of staining in each quadrant classified as: 0, no staining; 1, sporadic (involving <25% of the total surface) staining; grade 2, diffuse punctate staining (25-75%); and grade 3, coalesced punctate staining (>75%). The total grade is reported as the sum of scores from all four quadrants, ranging from 0 to 12.
as §1, with “Lissamine green staining. To” for “To”, “(≥75%).” for “(>75%).”

[2] = test system: loperamide-treated mice; assay: Loperamide-induced mouse model of constipation; conditions: for ED50: Mus musculus
[3] = test system: CFTR at the ocular surface; assay: Ocular surface potential difference (PD) in living mice; type: in vivo, mouse; conditions: wild-type mice, 1-10 μM
Experimental: Open-circuit transepithelial PD were measured continuously in anesthetized mice in response to serial perfusions of different solutions over the ocular surface, as described (21). Mice were anesthetized with Avertin (2,2,2-tribromoethanol, 125 mg/kg intraperitoneal, Sigma-Aldrich, St. Louis, Mo., USA), and core temperature was maintained at 37° C. using a heating pad. Eyes were oriented with the cornea and conjunctiva facing upward and exposed by retracting the eyelid with cross-action forceps. Solutions were isosmolar (320±10 mOsM; compositions provided in ref. 21) and contained 10μ[…] indomethacin to prevent CFTR activation by prostaglandins. The ocular surface was perfused at 6 mL/min through plastic tubing using a multireservoir gravity pinch-valve system (ALA Scientific, Westbury, N.Y., USA) and variable-flow peristaltic pump (medium flow model; Fisher Scientific, Fair Lawn, N.J., USA). A probe catheter was fixed 1 mm above the cornea using a micropositioner and a suction cannula was positioned 3 mm from the orbit. The measuring electrode was in contact to the perfusion catheter and connected to a high-impedance voltmeter (IsoMilivolt Meter; WPI). The reference electrode was grounded via a winged 21-gauge needle filled with isosmolar saline, and inserted subcutaneously in the abdomen. Measuring and reference electrodes consisted of Ag/AgCl with 3 M KCl agar bridges.
An open-circuit potential difference (PD) method developed in our lab was used to evaluate compound activity at the ocular surface in vivo, as depicted in FIG. 3A (21). Cl^− channel function was quantified by measuring PD during continuous perfusion of the ocular surface with a series of solutions that imposed a transepithelial Cl^− gradient and contained various channel agonists and/or inhibitors. The ocular surface was first perfused with isosmolar saline to record the baseline PD. Amiloride was then added to the perfusate, followed by exchange to a low Cl^− solution in which Cl^− with an impermeant anion, gluconate. These maneuvers allow for direct visualization of CFTR activation in response to addition of candidate CFTR activators.
Ocular surface potential difference measurements. Open-circuit transepithelial PD were measured continuously in anesthetized mice in response to serial perfusions of different solutions over the ocular surface, as described (21). Mice were anesthetized with Avertin (2,2,2-tribromoethanol, 125 mg/kg intraperitoneal, Sigma-Aldrich, St. Louis, Mo., USA), and core temperature was maintained at 37° C. using a heating pad. Eyes were oriented with the cornea and conjunctiva facing upward and exposed by retracting the eyelid with cross-action forceps. […]

[4] = Stability in simulated gastric fluid (pH 2); type: physicochemical; conditions: 10 μM, pH 2, 37° C., 3 h
Experimental: To study gastric acid stability CFTRact-J027 (10 μM) was dissolved in simulated gastric fluid (0.2 NaCl, 0.7% HCl, pH 2) and incubated for 3 h at 37° C. To study in vitro metabolic stability CFTRact-J027 (5 μM) was incubated for specified times at 37° C. with human liver microsomes (1 mg protein/ml; Sigma-Aldrich) in potassium phosphate buffer (100 mM) containing 1 mM NADPH. After specified incubation periods the mixtures were chilled on ice, and 0.5 ml of ice-cold ethyl acetate was added. Samples were centrifuged for 15 min at 3000 rpm, the supernatants evaporated to dryness, and the residues were dissolved in 100 μL mobile phase (acetonitrile:water, 3:1) and assayed by liquid chromatography mass spectrometry (LC/MS). The solvent system consisted of a linear gradient from 5 to 95% acetonitrile over 16 min (0.2 ml/min flow). Mass spectra were acquired on a mass spectrometer (Waters 2695 and Micromass ZQ, Milford, Mass.) using electrospray (+) ionization, mass ranging from 100 to 1500 Da, cone voltage 40 V.

For `Nc1ccc([N+](=O)[O-])cc1-c1nc2ccccc2n(Cc2ccccc2)c1=O` [CFTRact-J027, 3-(2-amino-5-nitrophenyl)-1-benzylquinoxalin-2(1H)-one], the “LG staining of cornea and conjunctiva” value [1] was “no corneal or conjunctival epithelial disruption”, the “ocular toxicity (slit-lamp evaluation)” value ([1]; topical three times daily, two weeks) was “no signs of ocular toxicity” and the “stool weight, pellet number and water content” value ([2]; 10 mg/kg ip, loperamide-treated mice, 3 h stool) was “normalized each of the stool parameters”. For the same compound, the “stool output and water content, oral” value ([2]; 10 mg/kg oral 1 h prior to loperamide) was “normalized stool output and water content; also recorded: effective in normalizing stool output and water content”, the “stool output and water content after chronic administration” value ([2]; 10 mg/kg oral for 7 days, loperamide 1 h after final dose) was “remained effective in normalizing stool output and water content” and the “stool output in control mice, oral” value ([2]; 10 mg/kg oral, control mice) was “no effect in control mice”. For the same compound, the ED50 ([2]; ip, read-out: ED50, ip administration, loperamide model, ip) was 2 mg/kg, the ED50 ([2]; po, read-out: ED50, oral administration, loperamide model, oral 1 h before loperamide) was ~0.5 mg/kg and the “effect on stool parameters in cystic fibrosis mice” value ([2]; cystic fibrosis mice lacking functional CFTR) was “without effect”. The “stool output and water content in control mice” value ([2]; ip, non-loperamide-treated mice) was “did not affect stool output or water content”, the duration of effect ([2]; mice) was 3 to 4 h and the “change in ocular surface PD” value [3] was “large hyperpolarizations”. The “degradation in simulated gastric fluid” value [4] was “no compound degradation”.
